Experimental data from patent US20220242879A1, “FUSED HETEROCYCLE DERIVATIVES” (Janssen Sciences Ireland Unlimited Company, priority 2019, published 2022).
Like-named read-outs stand apart in the source and are kept apart here.

Legend:
HBV = test: Anti-HBV activity, HepG2.117 cell line, intracellular HBV DNA by real-time PCR; type: cell-based, Hepatitis B virus; details: Hepatitis B virus, read-out: HBV-AVE-HepG2.117 EC50
Experimental: The anti HBV activity was measured using the HepG2.117 cell line, a stable, inducibly HBV producing cell line, which replicates HBV in the absence of doxicycline (Tet-off system). The HepG2 cell line is available from ATCC® under number HB-8065. Transfection of the HepG2 cell line can be as described in Sun and Nassal 2006 Journal of Hepatology 45 (2006) 636-645 “Stable HepG2- and Huh7-based human hepatoma cell lines for efficient regulated expression of infectious hepatitis B virus”.
For the antiviral assay, HBV replication was induced, followed by a treatment with serially diluted compound in 96-well plates. After 3 days of treatment, the antiviral activity was determined by, quantification of intracellular HBV DNA using real-time PCR and an HBV specific primer set and probe.

[1] = Cytotoxicity, ATPlite Luminescence Assay; type: cell-based, human; details: human, mean value, cells incubated for 3 days, viability by ATPlite, read-out: TOX-HepC2.117 CC50
Experimental: Cytotoxicity of the compounds was tested using HepG2 or HepG2.117 cells, incubated for 3 days in the presence of compounds. The viability of the cells was assessed using the PERKIN ELMER ATPlite Luminescence Assay System.”

[2] = 72 h, mean value, HepG2.117 cells, 3 days of treatment, intracellular HBV DNA

Structure (SMILES)	EC50 (HBV; [2])	CC50 at 3 days ([1]; HepG2.117 cells)	EC50 (HBV; HepG2.117, 72 h)	CC50 at 3 days [1]
Cn1ncc2c1-c1c3c(nn1CC2)CCN(C(=O)c1ccc(Cl)c(Cl)c1)C3 [Compound 9, (3,4-Dichlorophenyl)(1-methyl-1,4,5,8,9,11-hexahydro-10H-pyrazolo[3,4-c]pyrazolo-[1,5-a:4,3-c′]dipyridin-10-yl)methanone]	> 50 µM	> 50 µM		
O=C(c1ccc(Cl)c(Cl)c1)N1CCc2nn3c(c2C1)-c1nocc1CC(O)C3 (stereo not drawn) [Compound 19, (3,4-Dichlorophenyl)(5-hydroxy-5,6,9,10-tetrahydro-4H-isoxazolo[3,4-c]pyrido[4′,3′:3,4]pyrazolo[1,5-a]azepin-11(12H)-yl)methanone]	0.263 µM	> 50 µM		
O=C(c1ccc(Cl)c(Cl)c1)N1CCc2nn3c(c2C1)-c1nocc1CC(CO)C3 (stereo not drawn) [Compound 27]	0.393 µM	> 50 µM		
O=C(NC1CC1)C1Cc2conc2-c2c3c(nn2C1)CCN(C(=O)c1ccc(Cl)c(Cl)c1)C3 (stereo not drawn) [Compound 33, N-Cyclopropyl-11-(3,4-dichlorobenzoyl)-5,6,9,10,11,12-hexahydro-4H-[1,2]oxazolo[3,4-c]-pyrido[4′,3′:3,4]pyrazolo[1,5-a]azepine-5-carboxamide]			0.154 µM	> 50 µM
CCc1onc2c1CCCn1nc3c(c1-2)CN(C(=O)c1ccc(Cl)c(Cl)c1)CC3 [Compound 13, (3,4-Dichlorophenyl)(3-ethyl-5,6,9,10-tetrahydro-4H-[1,2]oxazolo[3,4-c]-pyrido[4′,3′:3,4]pyrazolo[1,5-a]azepin-11(12H)-yl)methanone]	2.94 µM	26.6 µM		
CNC(=O)[C@@H]1Cc2conc2-c2c3c(nn2C1)CCN(C(=O)c1ccc(Cl)c(Cl)c1)[C@@H]3C (single isomer, unassigned) [Compound 49]	4.64 µM	> 50 µM		
C=C1Cc2c(noc2N)-c2c3c(nn2C1)CCN(C(=O)c1ccc(Cl)c(Cl)c1)C3 [Compound 23, (3-Amino-5-methylidene-5,6,9,10-tetrahydro-4H-[1,2]oxazolo[3,4-c]pyrido[4′,3′:3,4]pyrazolo-[1,5-a]azepin-11(12H)-yl)(3,4-dichlorophenyl)methanone]	0.172 µM	21.2 µM		
O=C(c1cnc(Cl)c(Cl)c1)N1CCc2nn3c(c2C1)-c1nocc1CC(O)C3 (stereo not drawn) [Compound 53]	> 10 µM	> 50 µM		
O=C(c1ccc(Cl)c(Cl)c1)N1CCc2nn3c(c2C1)-c1nocc1CCC3 [Compound 11]	0.3 µM	> 46.2 µM		
CCNC(=O)C1Cc2conc2-c2c3c(nn2C1)CCN(C(=O)c1ccc(Cl)c(Cl)c1)C3 (stereo not drawn) [Compound 32, 11-(3,4-Dichlorobenzoyl)-N-ethyl-5,6,9,10,11,12-hexahydro-4H-[1,2]oxazolo[3,4-c]pyrido-[4′,3′:3,4]pyrazolo[1,5-a]azepine-5-carboxamide]	0.09 µM	> 50 µM		
O=C(c1ccc(Cl)c(Cl)c1)N1CCc2nn3c(c2C1)-c1nc[nH]c1CCC3 [Compound 44, (3,4-Dichlorophenyl)(4,5,6,9,10,12-hexahydroimidazo[4,5-c]pyrido[4′,3′:3,4]pyrazolo[1,5-a]azepin-11(3H)-yl)methanone]	0.574 µM	> 50 µM		
Cc1onc2c1CCCn1nc3c(c1-2)CN(C(=O)c1ccc(Cl)c(Cl)c1)CC3 [Compound 12, (3,4-Dichlorophenyl)(3-methyl-5,6,9,10-tetrahydro-4H-[1,2]oxazolo[3,4-c]pyrido[4′,3′:3,4]-pyrazolo[1,5-a]azepin-11(12H)-yl)methanone]	0.835 µM	31.1 µM		
CNC(=O)[C@H]1Cc2conc2-c2c3c(nn2C1)CCN(C(=O)c1ccc(Cl)c(Cl)c1)[C@@H]3C (single isomer, unassigned) [Compound 50]	8.43 µM	> 50 µM		
O=C(c1ccc(Cl)c(Cl)c1)N1CCc2nn3c(c2C1)-c1noc(-c2ccccc2)c1CC3 [Compound 4, (3,4-Dichlorophenyl)(3-phenyl-4,5,8,9-tetrahydro[1,2]oxazolo[3,4-c]pyrazolo-[1,5-a:4,3-c′]dipyridin-10(11H)-yl)methanone]	> 10 µM	> 10 µM		
O=C(c1ccc(Cl)c(Cl)c1)N1CCc2nn3c(c2C1)-c1nocc1CC(C(=O)N1CCOCC1)C3 (stereo not drawn) [Compound 38, [1-(3,4-Dichlorobenzoyl)-5,6,9,10,11,12-hexahydro-4H-[1,2]oxazolo[3,4-c]pyrido[4′,3′:3,4]-pyrazolo[1,5-a]azepin-5-yl](morpholin-4-yl)methanone]	1.44 µM	> 50 µM		
Nc1nc2c(s1)CCCn1nc3c(c1-2)CN(C(=O)c1ccc(Cl)c(Cl)c1)CC3 [Compound 51, (2-amino-4,5,6,9,10,12-hexahydro-11H-pyrido[4′,3′:3,4]pyrazolo[1,5-a]thiazolo[4,5-c]azepin-11-yl)(3,4-dichlorophenyl)methanone]	> 10 µM	> 50 µM		
O=C(NCC(F)(F)F)C1Cc2conc2-c2c3c(nn2C1)CCN(C(=O)c1ccc(Cl)c(Cl)c1)C3 (stereo not drawn) [Compound 35, 11-(3,4-Dichlorobenzoyl)-N-(2,2,2-trifluoroethyl)-5,6,9,10,11,12-hexahydro-4H-[1,2]oxazolo-[3,4-c]pyrido[4′,3′:3,4]pyrazolo[1,5-a]azepine-5-carboxamide]	0.395 µM	> 50 µM		
Cn1cc2c(n1)-c1c3c(nn1CC2)CCN(C(=O)c1ccc(Cl)c(Cl)c1)C3 [Compound 8, (3,4-Dichlorophenyl)(2-methyl-2,4,5,8,9,11-hexahydro-10H-pyrazolo[3,4-c]pyrazolo-[1,5-a:4,3-c]dipyridin-10-yl)methanone]	2.55 µM	> 50 µM		
C=C1Cc2c(noc2N(C)C)-c2c3c(nn2C1)CCN(C(=O)c1ccc(Cl)c(Cl)c1)C3 [Compound 26, (3,4-Dichlorophenyl)[3-(dimethylamino)-5-methylidene-5,6,9,10-tetrahydro-4H-[1,2]oxazolo-[3,4-c]pyrido[4′,3′:3,4]pyrazolo[1,5-a]azepin-11(12H)-yl]methanone]	1.15 µM	> 50 µM		
O=C(c1ccc(Cl)c(Cl)c1)N1CCc2nn3c(c2C1)-c1nocc1CC3 [Compound 1, (3,4-Dichlorophenyl)(4,5,8,9-tetrahydro[1,2]oxazolo[3,4-c]pyrazolo[1,5-a:4,3-c′]dipyridin-10(11H)-yl)methanone]	1.13 µM	> 50 µM		
Nc1onc2c1CC(O)(CO)Cn1nc3c(c1-2)CN(C(=O)c1ccc(Cl)c(Cl)c1)CC3 (stereo not drawn) [Compound 24, [3-Amino-5-hydroxy-5-(hydroxymethyl)-5,6,9,10-tetrahydro-4H-[1,2]oxazolo[3,4-c]pyrido-[4′,3′:3,4]pyrazolo[1,5-a]azepin-11(12H)-yl](3,4-dichlorophenyl)methanone]	1.59 µM	> 50 µM		
O=C(c1ccc(Cl)c(Cl)c1)N1CCc2nn3c(c2C1)-c1nocc1CC(O)(CO)C3 (stereo not drawn) [Compound 18, (3,4-Dichlorophenyl)[5-hydroxy-5-(hydroxymethyl)-5,6,9,10-tetrahydro-4H-[1,2]oxazolo-[3,4-c]pyrido[4′,3′:3,4]pyrazolo[1,5-a]azepin-11(12H)-yl]methanone]	1.05 µM	> 50 µM		
O=C(O)C1Cc2conc2-c2c3c(nn2C1)CCN(C(=O)c1ccc(Cl)c(Cl)c1)C3 (stereo not drawn) [Compound 29, 11-(3,4-Dichlorobenzoyl)-5,6,9,10,11,12-hexahydro-4H-[1,2]oxazolo[3,4-c]pyrido[4′,3′:3,4]-pyrazolo[1,5-a]azepine-5-carboxylic Acid]	15.5 µM	> 50 µM		
O=C(c1ccc(Cl)c(Cl)c1)N1CCc2nn3c(c2C1)-c1noc(C(F)(F)F)c1CCC3 [Compound 16, (3,4-Dichlorophenyl)[3-(trifluoromethyl)-5,6,9,10-tetrahydro-4H-[1,2]oxazolo[3,4-c]pyrido[4′,3′:3,4]pyrazolo[1,5-a]azepin-11(12H)-yl]methanone]	1.62 µM	> 50 µM		
Cc1onc2c1CCCn1nc3c(c1-2)CN(C(=O)c1ccc(Cl)c(Cl)c1)[C@H](C)C3 [Compound 15, (3,4-dichlorophenyl)[(10R)-3,10-dimethyl-5,6,9,10-tetrahydro-4H-[1,2]oxazolo-[3,4-c]pyrido[4′,3′:3,4]pyrazolo[1,5-a]azepin-11(12H)-yl]methanone]	0.934 µM	> 43.5 µM		
C=C1Cc2conc2-c2c3c(nn2C1)CCN(C(=O)c1ccc(Cl)c(Cl)c1)C3 [Compound 17, (3,4-Dichlorophenyl)(5-methylidene-5,6,9,10-tetrahydro-4H-[1.2]oxazolo[3,4-c]pyrido-[4′,3′:3,4]pyrazolo[1,5-a]azepin-11(12H)-yl)methanone]	0.248 µM	24.7 µM		
CCc1onc2c1CCn1nc3c(c1-2)CN(C(=O)c1ccc(Cl)c(Cl)c1)CC3 [Compound 3, (3,4-dichlorophenyl)(3-ethyl-4,5,8,9-tetrahydro[1,2]oxazolo[3,4-c]pyrazolo[1,5-a:4,3-c′]dipyridin-10(11H)-yl)methanone]	1.44 µM	47 µM		
